Assay results taken from patent US20230235374A1, “High Throughput Assays for Detecting Translation Readthrough Inducers” (The Trustees of the University of Pennsylvania, priority 2021, published 2023).

Tests used:
Format in all cases: binding, shrimp (Artemia salina)
[1] = tested on: rRNA fragments I-IV of Stop-POST5; experiment: RNaseH fragment assay, Stop-POST5
Protocol: (§1) RNaseH Fragment Assay. Total RNA was prepared from the ^3H-AzAt photoaffinity labeled ribosome by phenol-chloroform extraction. RNA: DNA duplexes were formed by incubating total RNA (0.2 μM) with an oligonucleotide pair (1 μM of each, sequences shown Table 1), flanking a specific RNA region, in 22.8 μL of water at 95° C. for 2 min, followed by annealing at 50° C. for 30 s and quenching on ice. Six units (1.2 μL) of RNase H (NEB) and 6 μl of 5×RNase H Reaction Buffer were next added to the RNA: DNA duplex and incubated at 37° C. for 1 hour, followed by phenol-chloroform extraction of RNA. The digested RNA was separated on 12% TBE-Urea PAGE gel, and the target band along with the adjacent upper and bottom gels were sliced by a 2 mm gel cutter. The gel slices were crushed and the ^3H labeled rRNA fragment was extracted in water by vigorously shaking at 70° C. for 30 min, or by overnight extraction in elution buffer (0.3M sodium acetate, 0.25% SDS, 1 mM EDTA). The slurry was removed by centrifugation and the eluted ^3H labeled rRNA in the supernatant was quantified. The stoichiometry of AzAt photoincorporation was calculated based on a gel recovery yield of 20±2%, determined using an authentic sample of [^3H]-Gln-tRNA^Gln.
(§2) Testing the functional pertinence of AzAt photolabeling of 18S A1195, 28S-A3093, 28S-A2672, and 28S-2669. An RNAse H fragment assay was employed to determine whether the potential functionally significant sites identified by LASER-seq correspond to ataluren binding sites relevant for termination activity. In this assay, oligonucleotide hybridization, RNase H digestion and polyacrylamide gel electrophoresis (PAGE) were used to determine the stoichiometry of [^3H]-AzAt photoincorporation into the three rRNA fragments that together include the four nucleotides of interest: Fragment I, 18S-A1195; Fragment II, 26S-A3093; Fragment III, 26S-A2669 and 26S-A2672 (Table 5). The separate addition of four potential competitors of AzAt binding (eRF1 alone, the stably bound eRF1.eRF3.GDPNP complex, ataluren, and the ataluren-like TRID GJ072) was used to test how these affected such photoincorporation. These experiments, the results of which are summarized in Table 5, were performed at two different AzAt concentrations. eRF1 and eRF1.eRF3.GDPNP effects were measured using 300 μM AzAt, paralleling the LASER-Seq PAL experiments.

[2] = tested on: rRNA fragments I-IV of 80S-IRES; experiment: RNaseH fragment assay, 80S-IRES
Protocol: as §1, §2

[3] = tested on: Small RNAs within Stop-POST5 complex; experiment: AzAt photoincorporation into small RNAs (urea-PAGE, RNAse H fragments)
Protocol: FIG. 11 illustrates 8% Urea-PAGE resolution of small RNAs.
Photoaffinity labeling with [^3H]-AzAt. Samples in Buffer 4, typically 20 μL, were incubated in the dark (20 min for Stop-POST5 and 80S-IRES complexes, 2 min for release factors) with various concentrations of [^3H]-AzAt at 37° C., transferred to a UV-transparent cuvette which was covered with parafilm to prevent evaporation, and irradiated in a Rayonet photochemical reactor equipped with 300 nm UV lamps for 5 min at room temperature. This was followed by quenching with 2 mM DTT at 37° C. for 5 min under ambient light. The irradiation time gave complete photolysis of the phenyl azide moiety in AzAt. Photolysis was also complete at 5 min in the presence of 1 mM ataluren, ruling out internal filtering effects.
Stop-POST5 and 80S-IRES complexes. 1 μM solutions of either Stop-POST5 or 80S-S.IRES, determined by A260, were photolabeled by [^3H]-AzAt. The sample was then either directly purified by ultracentrifugation through a sucrose cushion to determine the photoincorporation stoichiometry in the complex, or subjected to phenol/chloroform extraction to determine the photoincorporation stoichiometry in the total RNA. To determine the photoincorporation background arising from incomplete removal of noncovalently bound photolyzed AzAt, AzAt was prephotolysed for 5 min before adding to the complex, followed by the 20 min incubation in dark at 37° C. and subsequent sucrose cushion purification or RNA extraction as described above.
as §1
Small RNAs. AzAt photoincorporation into the 4 small RNAs (CrPV-IRES, 5.8S rRNA, 5S rRNA, and tRNA) contained within POST5 was examined by one-dimensional (1D) urea-PAGE analysis, by RNA-Seq, and by RNAse H fragment assay (FIG. 11).

[4] = Stop-POST5, PAL, 300 μM AzAt, alone or plus competing ligand named as label
[5] = 80S-IRES, PAL, 300 μM AzAt, alone or plus competing ligand named as label
[6] = PAL, 300 μM AzAt, alone or plus competing ligand named as label

Photoincorporation yields into RNAse H Fragment IV: 26S 1413-1476 ([1]; Stop-POST5, PAL, 300 μM AzAt, alone or plus competing ligand named as label (eRF1 2 μM, eRF3 4 μM, GDPNP 1 mM)): 0.20 ± 0.01%
Photoincorporation yields into RNAse H Fragment IV: 26S 1413-1476 ([2]; 80S.IRES, PAL, 300 μM AzAt, alone or plus competing ligand named as label): 0.30 ± 0.03%
effect on AzAt labeling of CrPV-IRES ([3]; 300 μM AzAt): partial but significant reduction
Photoincorporation yields into CrPV-IRES nts1-155 ([3]; PAL, 300 μM AzAt, alone (AzAt) or plus competing ligand named as label (eRF1 2 μM, eRF3 4 μM, GDPNP 1 mM)): 4.6 ± 1.4 mole %
Photoincorporation yields into 5S rRNA [3, 6]: 1.3 ± 0.2 mole %
Photoincorporation yields into 5.8S rRNA [3, 6]: 0.80 ± 0.02 mole %
Photoincorporation yields into CrPV-IRES All [3, 6]: 5.4 ± 0.6 mole %
Photoincorporation yields into CrPV-IRES nts156-221 [3, 6]: 2.9 ± 0.6 mole %
Photoincorporation yields into CrPV-IRES nts222-278 [3, 6]: 0.08 ± 0.11 mole %
Photoincorporation yields into tRNA^Gln [3, 6]: 2.2 ± 0.2 mole %
effect on AzAt labeling of CrPV-IRES fragments 1-155 and 156-221 ([3]; RNAse H fragment assay): Only minor decreases
Substance: eRF1/eRF3/GDPNP: stably bound ternary complex of eRF1, eRF3 and GDPNP used as competing ligand
Photoincorporation yields into 26S-A2669:A2672/ III: 26S 2638-2702 [1, 4]: 0.19 ± 0.02 mole %
Photoincorporation yields into 26S-A3093/ II: 26S 3069-3113 [1, 4]: 0.18 ± 0.10 mole %
Photoincorporation yields into 18S A1195/ I: 18S 1151-1206 ([1]; Stop-POST5, PAL, 300 μM AzAt, alone or plus competing ligand named as label (eRF1 2 μM, eRF3 4 μM, GDPNP)): 0.07 ± 0.03 mole %
effect on AzAt photoincorporation into Fragments I, II, and III ([1]; Stop-POST5 complex): strongly inhibited
Photoincorporation yields into 18S A1195/ I: 18S 1151-1206 [2, 5]: 0.56 ± 0.06 mole %
Photoincorporation yields into 26S-A2669:A2672/ III: 26S 2638-2702 [2, 5]: 0.94 ± 0.23 mole %
Photoincorporation yields into 26S-A3093/ II: 26S 3069-3113 [2, 5]: 0.55 ± 0.12 mole %
effect on AzAt photoincorporation into Fragment I ([2]; 80S.IRES complex): only partial inhibition
effect on AzAt photoincorporation into Fragments II and III ([2]; 80S.IRES complex): essentially no inhibition
